Where “and” joins values, the source holds several entries; their conditions need not be identical. Equal values may be shown once.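 How tested: cells in 96-well plates exposed to compound for 48 hours at five concentrations. Here, GI50 denotes the concentration required for 50% inhibition of growth. TGI denotes the concentration required for complete inhibition of growth.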
Legend:
Test in all cases: inhibition of tumour cell growth, NCI panel, 48 h
KM20L2 colon = tested on: KM20L2 colon
DMS 114 small cell lung = tested on: DMS 114 small cell lung
SNB-78 CNS = tested on: SNB-78 CNS
M19-MEL melanoma = tested on: M19-MEL melanoma
DLD-1 colon = tested on: DLD-1 colon
LXFL 529 NSCLC = tested on: LXFL 529 NSCLC
DMS 273 small cell lung = tested on: DMS 273 small cell lung
MDA-N = tested on: MDA-N
RXF-631 renal = tested on: RXF-631 renal

Row | Compound | TGI (KM20L2 colon) | TGI (DMS 114 small cell lung) | TGI (SNB-78 CNS) | TGI (M19-MEL melanoma) | TGI (DLD-1 colon) | TGI (LXFL 529 NSCLC) | TGI (DMS 273 small cell lung) | TGI (MDA-N) | also measured
1 | O=C1c2ccccc2N2OC3(N4CCCC4)CCCC3C12c1ccccc1 (stereo not given) | > 100 µM | > 100 µM | > 100 µM | > 100 µM | > 100 µM | > 100 µM | > 100 µM |  | 
2 | C=C(C)C1CC2C(C)=C(OC(C)=O)C1n1c(=O)c3cc4ccccc4cc3c(=O)n12 (stereo not given) | > 100 µM | > 100 µM | > 100 µM | > 100 µM | > 100 µM | > 100 µM | > 100 µM |  | 
3 | Clc1ccc(COC(Cn2ccnc2)c2ccc(Cl)cc2Cl)cc1 (stereo not given) |  |  |  |  |  |  |  | 27.4 µM and 25.4 µM | 
4 | CC(C)N(C(C)C)[PH+]1O[PH+](N(C(C)C)C(C)C)O[PH+](N(C(C)C)C(C)C)O[PH+](N(C(C)C)C(C)C)O[PH+](N(C(C)C)C(C)C)O1.[C-]#[O+].[C-]#[O+].[C-]#[O+].[C-]#[O+].[C-]#[O+].[C-]#[O+].[C-]#[O+].[Cr].[Cr] (stereo not given) | > 100 µM | > 100 µM | > 100 µM | > 100 µM | > 100 µM | > 100 µM | > 100 µM |  | GI50 (KM20L2 colon): > 100 µM; GI50 (DMS 114 small cell lung): > 100 µM; GI50 (SNB-78 CNS): > 100 µM; GI50 (M19-MEL melanoma): > 100 µM; GI50 (DLD-1 colon): > 100 µM; GI50 (LXFL 529 NSCLC): > 100 µM; GI50 (DMS 273 small cell lung): > 100 µM
5 | COC1/C=C/OC2(C)Oc3c(C)c(O)c4c(c3C2=O)C(=O)C=C(NC(=O)/C(C)=C\C=C\C(C)C(OC=O)C(C)C(O)C(C)C(OC(C)=O)C1C)C4=O (stereo not given) | 35.2 µM | 34.6 µM | 44.2 µM | 27.6 µM | 23.3 µM | 19 µM | 30.9 µM | > 50.7 µM | TGI (RXF-631 renal): 35.7 µM
6 | Cc1cc2c(cc1C)NC1=C(N2)OC(c2c[nH]c3ccc(COc4ccccc4)cc23)C1=O (stereo not given) |  |  |  |  |  |  |  | > 100 µM | 
7 | COC(=O)c1ccc2c(c1)C(NC(C)=O)CCc1cc(OC)c(OC)c(OC)c1-2 (stereo not given) | < 0.01 µM | 0.0356 µM | > 4.64 µM | > 100 µM | > 100 µM | > 100 µM | > 100 µM | < 0.01 µM | TGI (RXF-631 renal): > 6.91 µM
8 | O=[N+]([O-])c1ccc(N=Nc2c(O)[nH]c3ccc([N+](=O)[O-])cc23)cc1 | 63.7 µM | 86.3 µM |  | 36.9 µM | > 100 µM | 26.4 µM | 33.6 µM |  | TGI (RXF-631 renal): 62.7 µM
9 | COc1ccc(C(C2=C(C)C(=O)c3ccccc3C2=O)c2ccc(C(C)C)cc(=O)c2O)cc1 (stereo not given) |  | 8.54 µM | 35.1 µM | 4.92 µM | 18.4 µM | > 100 µM | 5.4 µM |  | 
10 | O=C(C(=O)c1ccc(Cc2ccc(C(=O)C(=O)c3ccccc3)cc2)cc1)c1ccccc1 | > 100 µM | > 100 µM | > 100 µM | > 100 µM | > 100 µM | > 100 µM | > 100 µM |  | TGI (RXF-631 renal): > 100 µM
11 | CC(=O)N(CCN)CCN | > 10 µM | > 10 µM | > 10 µM | > 10 µM | > 100 µM | > 10 µM | > 10 µM |  | TGI (RXF-631 renal): > 10 µM
12 | O=C(CC(C(=O)c1cccs1)c1ccc2c(c1)OCO2)c1ccc(Br)cc1 (stereo not given) |  |  |  |  |  |  |  | > 100 µM | 
13 | COc1cc(-c2oc3ccccc3c(=O)c2O)cc(OC)c1OC |  |  |  |  |  |  |  | > 100 µM | 
14 | CN1C2CC(C#N)C1C=CC2=O (stereo not given) |  |  |  |  |  |  |  | 43.1 µM and > 100 µM | GI50 (MDA-N): 19.2 µM and 63.3 µM
15 | O=C(O)c1cc[c]([Hg][S]c2ncnc3nc[nH]c23)cc1 |  |  |  |  |  |  |  | 20.3 µM | GI50 (MDA-N): 4.84 µM
16 | COc1ccc(C2SC(N)=Nc3c2c(C)nn3C(=O)c2ccc(Cl)cc2)cc1OC (stereo not given) |  |  |  |  |  |  |  | > 10 µM | 
17 | Cc1nc2c(n1CC(C)(C)C)C(=O)c1ccccc1C2=O | > 100 µM |  | > 100 µM |  | > 100 µM | > 100 µM | > 100 µM |  | 
18 | Clc1ccc([O][In]([O]c2ccc(Cl)cn2)[O]c2ccc(Cl)cn2)nc1 | > 100 µM | > 100 µM | > 100 µM | > 100 µM | > 100 µM |  | > 100 µM |  | GI50 (KM20L2 colon): > 100 µM; GI50 (DMS 114 small cell lung): > 100 µM; GI50 (SNB-78 CNS): > 100 µM; GI50 (M19-MEL melanoma): > 100 µM; GI50 (DLD-1 colon): > 100 µM; GI50 (DMS 273 small cell lung): > 100 µM
19 | Fc1cccc(Cl)c1C1SCc2nc3ccccc3n21 (stereo not given) | 49.7 µM | 65.6 µM | 73.8 µM | 89 µM | > 100 µM | > 100 µM | 57.9 µM |  | TGI (RXF-631 renal): > 100 µM
20 | Cc1cc(Cl)ccc1NC(=O)C(=O)Cc1nc2ccc(C(=O)c3ccccc3)cc2[nH]c1=O | > 100 µM | > 100 µM |  | > 100 µM | > 100 µM | > 100 µM | > 100 µM |  | 
21 | CCN(CC)c1ccc(NC(=S)NN(C)C)cc1 |  |  |  |  |  |  |  | > 10 µM | 
22 | COc1cc(C2c3cc4c(cc3[C@@H](Nc3ccc(N(C)C)cc3)[C@H]3COC(=O)C23)OCO4)cc(OC)c1O (stereo not given in full) | 3.02 µM and 10.7 µM | 2.95 µM and 3.2 µM | 22.2 µM and 37.6 µM | 12.3 µM and 16.5 µM | 9.22 µM and 12.4 µM | 11.1 µM and 20.6 µM | 0.877 µM and 2.47 µM |  | GI50 (KM20L2 colon): 2.41 µM; GI50 (DMS 114 small cell lung): 0.596 µM; GI50 (SNB-78 CNS): 8.2 µM; GI50 (M19-MEL melanoma): 2.53 µM; GI50 (DLD-1 colon): 2.19 µM; GI50 (LXFL 529 NSCLC): 6.16 µM; GI50 (DMS 273 small cell lung): 0.202 µM
